The values that follow come from patent US8592629B2, “Sulfonamide derivatives as Nav 1.7 inhibitors” (Pfizer Limited, priority 2010, dated 2013).

This experiment addresses T1, Nav1.7 (or SCN9A) channel (Homo sapiens, UniProt Q15858).
T1 construct: expressed in transfected cells
Put plainly: Nav1.7 (hSCN9A) block in HEK cells, PatchXpress 7000 automated electrophysiology, estimated IC50 (EIC50). The experiment is classed as cell-based. The settings on record: PatchXpress assay; HEK cells stably transfected with hSCN9A, voltage-clamped at V1/2 of inactivation. The protocol:
The ability of the compounds of formula (I) to block the Nav1.7 (or SCN9A) channel were measured using the assay described below.
Human Embryonic Kidney (HEK) cells were transfected with an hSCN9A construct using lipofectamine reagent (Invitrogen), using standard techniques. Cells stably expressing the hSCN9A constructs were identified by their resistance to G-418 (400 μg/ml). Clones were screened for expression using the whole-cell voltage-clamp technique.
HEK cells stably transfected with hSCN9A were maintained in DMEM medium supplemented with 10% heat-inactivated fetal bovine serum and 400 μg/ml G-418 in an incubator at 37° C. with a humidified atmosphere of 10% CO2. For HTS, cells were harvested from flasks by trypsinization and replated in an appropriate multi-well plate (typically 96 or 384 wells/plate) such that confluence would be achieved within 24 hours of plating. For electrophysiological studies, cells were removed from the culture flask by brief trypsinization and re-plated at low density onto glass cover slips. Cells were typically used for electrophysiological experiments within 24 to 72 hours after plating.
HEK cells stably transfected with hSCN9A were viewed under Hoffman contrast optics and placed in front of an array of flow pipes emitting either control or compound-containing extracellular solutions. All compounds were dissolved in dimethyl sulfoxide to make 10 mM stock solutions, which were then diluted into extracellular solution to attain the final concentrations desired. […] The voltage-dependence of inactivation was determined by applying a series of depolarizing prepulses (8 sec long in 10 mV increments) from a negative holding potential. The voltage was then immediately stepped to 0 mV to assess the magnitude of the sodium current. Currents elicited at 0 mV were plotted as a function of prepulse potential to allow estimation of the voltage at which 50% of the channels were inactivated (midpoint of inactivation or V1/2). Compounds were tested for their ability to inhibit hSCN9A sodium channels by activating the channel with a 20 msec voltage step to 0 mV following an 8 second conditioning prepulse to the empirically determined V1/2. Compound effect (% inhibition) was determined by difference in current amplitude before and after application of test compounds. For ease of comparison, “estimated IC-50” (EIC50) values were calculated from single point electrophysiology data by the following equation, (tested concentration, uM) X (100-% inhibition/% inhibition). Inhibition values <20% and >80% were excluded from the calculation.
Electrophysiological assays were conducted with PatchXpress 7000 hardware and associated software (Molecular Devices Corp). All assay buffers and solutions were identical to those used in conventional whole-cell voltage clamp experiments described above. hSCN9A cells were grown as above to 50%-80% confluency and harvested by trypsinization. Trypsinized cells were washed and resuspended in extracellular buffer at a concentration of 1×10^6 cells/ml. The onboard liquid handling facility of the PatchXpress was used for dispensing cells and application of test compounds. Determination of the voltage midpoint of inactivation was as described for conventional whole-cell recordings. Cells were then voltage-clamped to the empirically determined V1/2 and current was activated by a 20 msec voltage step to 0 mV.
Compounds of the Examples were tested in the assays described above and found to have the Nav1.7 EIC50 (μM) values specified in the table below. All data are derived from the PatchXpress assay unless explicitly stated otherwise.

SMILES strings stand for the structures. Where a name gives a salt, the structure may show the parent alone.

T1 sequence (Q15858 whole entry): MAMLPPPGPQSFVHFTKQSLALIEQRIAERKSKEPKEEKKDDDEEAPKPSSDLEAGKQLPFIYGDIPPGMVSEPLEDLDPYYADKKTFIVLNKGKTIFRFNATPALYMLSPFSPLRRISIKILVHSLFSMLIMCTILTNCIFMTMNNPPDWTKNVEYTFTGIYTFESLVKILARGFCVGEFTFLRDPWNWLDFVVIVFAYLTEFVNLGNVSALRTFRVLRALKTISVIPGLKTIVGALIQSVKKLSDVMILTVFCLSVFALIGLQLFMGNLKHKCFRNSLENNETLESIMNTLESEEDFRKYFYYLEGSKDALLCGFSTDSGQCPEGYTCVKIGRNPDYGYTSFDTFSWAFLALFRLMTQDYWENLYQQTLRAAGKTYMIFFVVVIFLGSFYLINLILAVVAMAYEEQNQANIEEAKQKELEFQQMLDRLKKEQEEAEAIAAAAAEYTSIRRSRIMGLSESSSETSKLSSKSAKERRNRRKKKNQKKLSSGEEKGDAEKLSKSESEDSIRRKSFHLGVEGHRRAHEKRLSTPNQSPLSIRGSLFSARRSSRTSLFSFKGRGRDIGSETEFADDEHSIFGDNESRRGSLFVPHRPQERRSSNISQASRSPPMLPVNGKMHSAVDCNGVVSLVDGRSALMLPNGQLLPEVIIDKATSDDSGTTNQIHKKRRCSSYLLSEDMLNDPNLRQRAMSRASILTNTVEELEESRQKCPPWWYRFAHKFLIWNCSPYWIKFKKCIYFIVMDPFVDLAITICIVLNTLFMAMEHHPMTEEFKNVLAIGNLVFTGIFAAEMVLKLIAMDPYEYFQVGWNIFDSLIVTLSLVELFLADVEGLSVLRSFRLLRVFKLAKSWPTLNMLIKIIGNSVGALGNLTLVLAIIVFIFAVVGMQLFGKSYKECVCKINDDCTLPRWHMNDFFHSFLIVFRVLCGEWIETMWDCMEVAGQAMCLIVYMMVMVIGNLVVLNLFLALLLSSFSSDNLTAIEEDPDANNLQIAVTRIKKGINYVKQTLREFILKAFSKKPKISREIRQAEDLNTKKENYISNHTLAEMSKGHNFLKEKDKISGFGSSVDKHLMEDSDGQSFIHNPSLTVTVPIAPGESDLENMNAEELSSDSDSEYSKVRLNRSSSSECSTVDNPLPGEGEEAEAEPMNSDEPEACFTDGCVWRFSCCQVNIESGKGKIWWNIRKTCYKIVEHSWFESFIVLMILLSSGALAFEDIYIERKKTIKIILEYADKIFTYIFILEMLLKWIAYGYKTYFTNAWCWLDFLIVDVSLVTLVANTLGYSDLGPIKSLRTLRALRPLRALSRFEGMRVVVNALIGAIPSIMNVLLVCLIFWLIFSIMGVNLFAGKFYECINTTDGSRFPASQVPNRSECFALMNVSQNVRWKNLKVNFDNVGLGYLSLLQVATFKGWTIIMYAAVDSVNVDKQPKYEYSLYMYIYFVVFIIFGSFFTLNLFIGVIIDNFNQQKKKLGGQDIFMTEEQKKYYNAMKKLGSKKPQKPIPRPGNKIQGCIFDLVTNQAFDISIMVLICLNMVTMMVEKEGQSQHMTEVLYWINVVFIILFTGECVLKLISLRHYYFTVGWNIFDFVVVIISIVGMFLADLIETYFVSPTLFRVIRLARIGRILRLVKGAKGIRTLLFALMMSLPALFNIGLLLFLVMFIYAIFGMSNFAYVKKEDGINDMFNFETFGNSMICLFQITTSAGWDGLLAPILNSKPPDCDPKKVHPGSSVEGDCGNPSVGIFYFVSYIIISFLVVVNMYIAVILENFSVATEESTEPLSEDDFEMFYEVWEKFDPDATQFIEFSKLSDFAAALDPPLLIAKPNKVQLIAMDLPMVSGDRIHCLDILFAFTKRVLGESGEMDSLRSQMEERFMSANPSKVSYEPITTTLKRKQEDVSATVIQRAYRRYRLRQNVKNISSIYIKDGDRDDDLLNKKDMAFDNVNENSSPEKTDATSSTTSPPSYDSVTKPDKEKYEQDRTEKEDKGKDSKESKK

The term IC50 denotes the point on the concentration scale where inhibition reaches its midpoint. Take `[2H]C([2H])([2H])C([2H])(Oc1ncc(Oc2cc(F)c(C(=O)NS(C)(=O)=O)cc2Cl)cc1Cl)C([2H])([2H])[2H]` (single isomer, unassigned) [Example 42, 5-chloro-4-({5-chloro-6-[d7-propan-2-yloxy]pyridin-3-yl}oxy)-2-fluoro-N-(methylsulfonyl)benzamide]: the IC50 was 31 nM.
Take `[2H]C(C)(C)Oc1ncc(Oc2cc(F)c(C(=O)NS(C)(=O)=O)cc2Cl)cc1Cl` (single isomer, unassigned) [Example 46, 5-chloro-4-({5-chloro-6-[2-d1-propan-2-yloxy]pyridin-3-yl}oxy)-2-fluoro-N-(methylsulfonyl)benzamide]: the IC50 was 110 nM.
With `CC(C)COc1ncc(Oc2ccc(C(=O)NS(C)(=O)=O)cc2C#N)cc1Cl` [Example 1, 4-[(5-Chloro-6-isobutoxypyridin-3-yl)oxy]-3-cyano-N-(methylsulfonyl)benzamide] the figure was 160 nM; with `CS(=O)(=O)NC(=O)c1cc(F)c(Oc2cnc(OCC3CC(F)(F)C3)c(Cl)c2)cc1F` [Example 2, 4-({5-Chloro-6-[(3,3-difluorocyclobutyl)methoxy]pyridin-3-yl}oxy)-2,5-difluoro-N-(methylsulfonyl)benzamide], 91 nM.
As for `CC(C)Oc1ncc(Oc2cc(F)c(C(=O)NS(C)(=O)=O)cc2F)cc1Cl` [Example 3, 4-[(5-Chloro-6-isopropoxypyridin-3-yl)oxy]-2,5-difluoro-N-(methylsulfonyl)benzamide], the figure is 41 nM; as for `CS(=O)(=O)NC(=O)c1ccc(Oc2cnc(N3CCCCC3)nc2)c(Cl)c1` [Example 4, 3-Chloro-N-(methylsulfonyl)-4-[(2-piperidin-1-ylpyrimidin-5-yl)oxy]benzamide], 300 nM; as for `CC(C)(F)c1ncc(Oc2cc(F)c(C(=O)NS(C)(=O)=O)cc2Cl)cc1Cl` [Example 7, 5-Chloro-4-{[5-chloro-6-(1-fluoro-1-methylethyl)pyridin-3-yl]oxy}-2-fluoro-N-(methylsulfonyl)benzamide], 290 nM.
As for `CC(C)Oc1ncc(Oc2cc(F)c(C(=O)NS(C)(=O)=O)cc2Cl)cc1C#N` [Example 8, 5-Chloro-4-[(5-cyano-6-isopropoxypyridin-3-yl)oxy]-2-fluoro-N-(methylsulfonyl)benzamide], the figure is 240 nM; as for `CS(=O)(=O)NC(=O)c1ccc(Oc2cnc(C(F)(F)F)c(Cl)c2)cc1` [Example 9, 4-{[5-Chloro-6-(trifluoromethyl)pyridin-3-yl]oxy}-N-(methylsulfonyl)benzamide], > 1000 nM; as for `CS(=O)(=O)NC(=O)c1cc(Cl)c(Oc2cnc(OC3COC3)c(Cl)c2)cc1F` [Example 10, 5-Chloro-4-{[5-chloro-6-(oxetan-3-yloxy)pyridin-3-yl]oxy}-2-fluoro-N-(methylsulfonyl)benzamide], 900 nM.
`CC(Oc1ncc(Oc2cc(F)c(C(=O)NS(C)(=O)=O)cc2F)cc1Cl)C(F)(F)F` (centres unmarked) [Example 12, 4-{[5-Chloro-6-(2,2,2-trifluoro-1-methylethoxy)pyridin-3-yl]oxy}-2,5-difluoro-N-(methylsulfonyl)benzamide]: the 50% inhibitory concentration (IC50) is 120 nM.
With `CS(=O)(=O)NC(=O)c1cc(Cl)c(Oc2cnc(OCCC(F)(F)F)c(Cl)c2)cc1F` [Example 13, 5-Chloro-4-{[5-chloro-6-(3,3,3-trifluoropropoxy)pyridin-3-yl]oxy}-2-fluoro-N-(methylsulfonyl)benzamide] the figure was 50 nM; with `CC(C)COc1ncc(Oc2ccc(C(=O)NS(C)(=O)=O)cc2)cc1Cl` [Example 14, 4-[(5-Chloro-6-isobutoxypyridin-3-yl)oxy]-N-(methylsulfonyl)benzamide], 140 nM.
With `COc1ncc(Oc2cc(F)c(C(=O)NS(=O)(=O)C3CC3)cc2F)cc1Cl` [Example 15, 4-(5-Chloro-6-methoxypyridin-3-yloxy)-N-(cyclopropylsulfonyl)-2,5-difluorobenzamide diethylamine salt] the figure was 4600 nM; with `CS(=O)(=O)NC(=O)c1cc(F)c(Oc2cnc(OC3CCC3)c(Cl)c2)cc1F` [Example 16, 4-(5-Chloro-6-cyclobutoxypyridin-3-yloxy)-2,5-difluoro-N-(methylsulfonyl)benzamide], 130 nM; with `CCC(C)S(=O)(=O)NC(=O)c1cc(F)c(Oc2cnc(OC)c(Cl)c2)cc1F` (centres unmarked) [Example 18, N-(sec-butylsulfonyl)-4-[(5-chloro-6-methoxypyridin-3-yl)oxy]-2,5-difluorobenzamide], 970 nM.
With `CC(C)n1ncc2cc(Oc3cc(F)c(C(=O)NS(C)(=O)=O)cc3Cl)ccc21` [Example 20, 5-Chloro-2-fluoro-4-[(1-isopropyl-1H-indazol-5-yl)oxy]-N-(methylsulfonyl)benzamide] the figure was > 3000 nM.
`CS(=O)(=O)NC(=O)c1cc(Cl)c(Oc2cnc(C3CC3)c(Cl)c2)cc1F` [Example 21, 5-chloro-4-[(5-chloro-6-cyclopropylpyridin-3-yl)oxy]-2-fluoro-N-(methanesulfonyl)benzamide]: the IC50 was 30 nM.
As for `CS(=O)(=O)NC(=O)c1cc(Cl)c(Oc2cnc(OCC(F)(F)C(F)F)c(Cl)c2)cc1F` [Example 22, 5-chloro-4-{[5-chloro-6-(2,2,3,3-tetrafluoropropoxy)pyridin-3-yl]oxy}-2-fluoro-N-(methanesulfonyl)benzamide], the figure is 19 nM; as for `CC(C)COc1ncc(Oc2cc(F)c(C(=O)NS(C)(=O)=O)cc2F)cc1Cl` [Example 23, 4-[(5-chloro-6-isobutoxypyridin-3-yl)oxy]-2,5-difluoro-N-(methylsulfonyl)benzamide], 39 nM.
With `CS(=O)(=O)NC(=O)c1cc(F)c(Oc2cnc(OC3CCOCC3)c(Cl)c2)cc1F` [Example 24, 4-{[5-chloro-6-(tetrahydro-2H-pyran-4-yloxy)pyridin-3-yl]oxy}-2,5-difluoro-N-(methylsulfonyl)benzamide] the figure was 780 nM.
As for `COc1ncc(Oc2cc(F)c(C(=O)NS(C)(=O)=O)cc2F)cc1Cl` [Example 25, 4-[(5-chloro-6-methoxypyridin-3-yl)oxy]-2,5-difluoro-N-(methylsulfonyl)benzamide], the figure is 9800 nM.
For the compound `CS(=O)(=O)NC(=O)c1cc(F)c(Oc2cnc(C(F)(F)F)nc2)cc1F` [Example 26, 2,5-difluoro-N-(methylsulfonyl)-4-{[2-(trifluoromethyl)pyrimidin-5-yl]oxy}benzamide], the IC50 was > 10000 nM.
With `CS(=O)(=O)NC(=O)c1cc(F)c(Oc2cnc(OCC(F)(F)F)c(Cl)c2)cc1F` [Example 27, 4-{[5-chloro-6-(2,2,2-trifluoroethoxy)pyridin-3-yl]oxy}-2,5-difluoro-N-(methylsulfonyl)benzamide] the figure was 220 nM; with `CC1(COc2ncc(Oc3cc(F)c(C(=O)NS(C)(=O)=O)cc3F)cc2Cl)CC1` [Example 28, 4-({5-chloro-6-[(1-methylcyclopropyl)methoxy]pyridin-3-yl}oxy)-2,5-difluoro-N-(methylsulfonyl)benzamide], 33 nM; with `CC(C)Oc1ncc(Oc2cc(F)c(C(=O)NS(C)(=O)=O)c(F)c2F)cc1Cl` [Example 29, 4-[(5-chloro-6-isopropoxypyridin-3-yl)oxy]-2,3,6-trifluoro-N-(methylsulfonyl)benzamide], 2300 nM.
